The text below walks through data of PMC9020739, “Identification of a two-component regulatory system involved in antimicrobial peptide resistance in Streptococcus pneumoniae” (PLoS Pathogens, 2022).

Where a SMILES comes first, the peptide text is derived from it. Bridges are numbered along the chain shown (N, C = ends). [ ]: non-standard residue; d: D form. The star is where a group is joined. Ileψ(thiazoline)Cys = CC[C@H](C)[C@H](N)C1=N[C@H](C(=O)*)CS1; dOrn = NCCC[C@@H](N)C(=O)O

What all share (assay type): cell-based, Streptococcus pneumoniae
One assay deals with S. pneumoniae R6 ΔbceAB. As to conditions: R6 strain; 2-fold broth dilution, Todd-Hewitt medium, 37°C, 15 h; two to four biological replicates, each technical duplicates. In outline: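 MIC by 2-fold broth dilution of antimicrobial peptides in Todd-Hewitt medium, cells seeded at OD600 0.002; complementation strains grown with 0.5 μM ComS, then assayed with 2 μM ComS. Growth followed at 37 °C without agitation by OD600 every 15 min for 15 h.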
Background: Broth dilution looks for growth in wells or tubes with falling amounts of substance.

Assay [1] deals with bceAB genes in S. pneumoniae D39 Δtcs01. The assay can be described thus: Quantification of gene expression by qPCR. As to conditions: D39 Δtcs01 knockout; bacitracin 1 μg/ml. Here is the method: (§1) S. pneumoniae D39 WT and Δtcs01 strains were routinely grown to OD600nm = 0.3 in THY. Then 1 μg/mL of bacitracin was added to the growth media for up to 30 min. Samples were taken at time points shown in the results section. Next, the cultures were mixed with RNA protect (Qiagen) at 1:1 ratio and incubated at room temperature for 5 min and centrifuged for 10 min at 3, 200 g at 4°C. The supernatant was decanted and the pellet was stored at -80°C. The bacteria were resuspended in 100 μL of sterile Tris-EDTA (TE), containing 15 mg/mL lysozyme (Sigma) then 20 μL of Proteinase K (20 mg/mL) (Roche) were added. The sample was vortexed 5 times for 10 sec at two-minutes intervals. Then 350 μL of lysis buffer from the Nucleospin RNA kit (Macherey-Nagel) were added to the sample with 3.5 μL of β-mercaptoethanol and 25 mg of glass beads (Sigma). The cells were lysed by continual vortexing for 5 min. The mRNA was extracted according to the manufacturer’s instructions. After elution, RNA samples were incubated with 5 μL of DNAse for 20 min at room temperature, then inactivated by heating for 70°C for 5 min. RNA concentration was measured using Nanovue (GE Healthcare). For cDNA synthesis 1 μg of RNA was generally used with the SuperScript III kit (Invitrogen) containing a reverse transcriptase, a set of primers, dNTPs, MgCl2 random hexamers and […] after the cDNA generation according to manufacturer’s instructions. Samples were then stored at -20°C. qPCR measurements were done with 2.5 μL of cDNA mixed with 1 μL (3 μM final) of forward and reverse primers, 5 μL iQ SYBR Green Supermix (BioRad) and 0.5 μL water using the CFX Connect Optical Module (BioRad) program as follows: 95°C for 3 min, then a repeat 40 times of 95°C for 10 sec, 55°C for 30 sec, and a fluorescence reading.
On the technique in general: Quantitative PCR measures a nucleic acid by following its amplification.

Assay [2] relates to bceAB and tcs01 genes in S. pneumoniae D39 WT. The assay can be described thus: Quantification of gene expression by qPCR. As to conditions: D39 wild-type, bacitracin 1 μg/ml for 5, 15 and 30 min, relative to untreated control. On the procedure: as §1
The subject of assay [3] is BceA-GFP in S. pneumoniae R800. The assay can be described thus: BceA-GFP expression by fluorescence microscopy and Western blot. As to conditions: bacitracin 0.5 μg/mL, 30 min, 37°C, fluorescence microscopy of individual cells. On the procedure: Cells were inoculated in C+Y medium and grown at 37°C, without agitation and in anaerobic conditions, until at OD550nm = 0.3. After centrifugation 5 min at 5,000 g, pellets were resuspended in 1/50th of initial volume in TE buffer (25 mM Tris-HCl pH = 7.5, EDTA 1 mM) with DNase/RNase 6 μg/mL and protease inhibitor CLAPA 1X (Chymostatin 1 μg/mL, Pepstatin 1 μg/mL, Leupeptin 1 μg/mL, Antipaïn 1 μg/mL, Aprotinin 4 μg/mL). Cells were lysed by sonication by using Sonifier 450 Branson device. 25 μg of crude extracts were mixed with Laemmli loading buffer and heated 10 min at 95°C. Samples were loaded onto an 12.5% SDS-PAGE and migration was performed in TG-SDS buffer (Tris-HCl 25 mM, Glycine 0.192 M, SDS 0.1% (v/v)). Proteins were transferred onto a PVDF membrane, previously activated by methanol 100%, in a transfer buffer (Tris-HCl 25 mM pH = 8, Glycine 0.192 M, methanol 20% (v/v), SDS 0.04% (v/v)). The membrane was washed with TBST (Tris-HCl 100 mM pH = 8, NaCl 150 mM, Tween 0.05%) and incubated 1 h with blocking buffer (BSA 5%, TBST). […]
Pneumococcal cells were grown at 37°C until OD550nm = 0.2 in C+Y medium. […] Images were analyzed using ImageJ (http://rsb.info.nih.gov/ij/) and the plugin MicrobeJ to generate violin plots.
On the technique in general: Immunoblotting shows a protein as a band on a membrane.

`CC[C@H](C)[C@H](N)C1=N[C@H](C(=O)N[C@@H](CC(C)C)C(=O)N[C@H](CCC(=O)O)C(=O)N[C@H](C(=O)N[C@H]2CCCCNC(=O)[C@H](CC(N)=O)NC(=O)[C@@H](CC(=O)O)NC(=O)[C@H](Cc3cnc[nH]3)NC(=O)[C@@H](Cc3ccccc3)NC(=O)[C@H]([C@@H](C)CC)NC(=O)[C@@H](CCCN)NC2=O)[C@@H](C)CC)CS1` [bacitracin] ({Ileψ(thiazoline)Cys}-L[dE]IK[dOrn]I[dF]H[dD]N; lactam 4-C (inferred); N-terminus assumed): the “Minimum Inhibitory Concentration, ΔbceAB” value with S. pneumoniae R6 ΔbceAB came to 1 µg/mL. For the same compound, the “Transcription of the bceAB genes” value in assay [1] is “failed to upregulate”; in assay [2] (n = 6-8), “strong upregulation”. For the same compound, the “Transcription of the tcs01 genes” value in assay [2] was “unaffected”. For the same compound, in assay [3], the “Expression of BceA-GFP” value was “strongly activated”.
